According to US20070248581A1, “MGRA IS A REDOX REGULATOR OF ANTIBIOTIC SENSITIVITY AND VIRULENCE” (priority 2006, published 2007):
≈ marks a conversion by molar mass, not a printed value.

How the values were obtained:
[1] = system: S. aureus mgrA mutant (mgrA-) strain; assay: MIC measurement, susceptibility of mgrA mutant strain to fluoroquinolones and vancomycin; format: cell-based; details: Staphylococcus aureus
Description: (§1) S. aureus cells were serially diluted and an equal number of cells was spotted on a plate containing various concentrations of antibiotics. The S. aureus strain Newman (wild-type) and the mutant strains mgrA- and mgrH1- (knock outs) were tested.

[2] = system: S. aureus strain Newman (wild-type); assay: MIC measurement, susceptibility of wild-type strain to fluoroquinolones and vancomycin; format: cell-based; details: Staphylococcus aureus
Description: as §1

MgrA [3] = target: T1, MgrA (Staphylococcus aureus, UniProt Q99VT5); assay: Alkylation of Cys12 in MgrA, DTNB assay for free thiol content; format: biochemical, S. aureus; parameters: His6 (N, cleaved yes); made in house; host or cells: E. coli BL21(DE3); details: 8 equivalents alkylator, 0.05 mM MgrA in water, pH 7.4, 1 h, r.t.
T1 sequence (Q99VT5 1-147): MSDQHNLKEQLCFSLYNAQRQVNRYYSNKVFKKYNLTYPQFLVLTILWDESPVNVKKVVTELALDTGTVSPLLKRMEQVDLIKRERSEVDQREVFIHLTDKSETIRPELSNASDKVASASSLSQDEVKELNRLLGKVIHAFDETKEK
Description: Alkylation of Cys12 in MgrA in vitro and in vivo. In a study to test potential alkylation of Cys12 in MgrA, the inventors examined several alkylators (1-7, Table 3). Eight equivalents of alkylators were used to react with 0.05 mM MgrA in water for 1 h at pH 7.4 at room temperature. Alkylation of Cys12 was determined by DTNB assay for free thiol content. […] Over 95% of cysteine thiols were alkylated by compound 7 after 1 h of reaction.

S. aureus Newman strain = assay: Antibiotic sensitivity assay of S. aureus under oxidative stress or alkylator treatment; format: cell-based, Staphylococcus aureus
Description: The change of susceptibility levels of S. aureus strains toward ciprofloxacin and vancomycin under oxidative stress. The antibiotic resistance levels were tested in the absence (−H2O2) or presence (+H2O2) of 100 μM H2O2 by a plate sensitivity assay (FIG. 7A) and were also determined in the absence (−PQ) or presence (+PQ) of 25 μM paraquat by a 96-well-plate sensitivity assay (FIG. 7B). […] Empty bars are non-treated cultures. Results are mean ±s.d. from three independent experiments performed in duplicate.
Five strains were used to test oxidation responses in vivo: the wild-type Newman, the mgrA- mutant (knock out), the mgrA- mutant complemented with mgrA cloned in a plasmid pYJ335, the mgrA- mutant complemented with mgrAC12S in pYJ335, and the control mutant strain with pYJ335.
The susceptibility levels of all five strains toward CIP and VCM were also evaluated in the absence and presence of paraquat (PQ), another reagent known to cause oxidative stress in vivo (FIG. 7B).

norA gene = assay: qRT-PCR of norA gene activation; format: cell-based, S. aureus; details: Newman strain
Description: Lanes 1 and 2, purified MgrA (2 μM) with a 40 bp oligonucleotide (0.4 pmol) containing the MgrA binding sequence on the sarV promoter region; lanes 3 and 4, MgrA was treated with 100 equivalents of phenyl vinyl sulfone (7) for 30 min (lane 3) or 60 min (lane 4) before mixed with DNA and applied for the shift assay. FIGS. 13A-B: The Cys-alkylator phenyl vinyl sulfone (PVS) has similar effects on MgrA as hydrogen peroxide. (FIG. 13A) Treatment of the Newman strain with PVS turned on resistance of the pathogen towards vancomycin. (FIG. 13B) The norA gene is repressed by MgrA; however, treatment of the Newman strain with either H2O2 or PVS can turn on this gene.
Activation of MgrA by phenyl vinyl sulfone (PVS) inside S. aureus was tested. […] To further confirm the effect of PVS, the inventors monitored activation of the norA gene known to be repressed by MgrA. […] The next challenge is to develop vinyl sulfones that have high affinity and specificity toward MgrA. Of course, a non-covalent modulator that can activate MgrA with high sensitivity and specificity via direct binding is also highly desirable.

splB gene = details: Newman strain, 0.4 mM, 30 min, qRT-PCR
Source text: (FIG. 10C) Monitoring in vivo effects of SarA oxidation by qRT-PCR.
The inventors also monitored activation of a virulence gene splB in S. aureus.

SarA = target: T2, SarA (Staphylococcus aureus, UniProt P0C1U6); assay: Oxidation of Cys9 in SarA by oxidants; format: biochemical, S. aureus; details: 100 equiv oxidant, 30 min, r.t.
T2 construct: made in house
T2 sequence (P0C1U6 1-124): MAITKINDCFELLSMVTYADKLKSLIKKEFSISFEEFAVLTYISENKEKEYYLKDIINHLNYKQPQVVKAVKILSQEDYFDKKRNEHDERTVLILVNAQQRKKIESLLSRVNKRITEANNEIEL
Source text: SarA may adopt an oxidation sensing mechanism similar to MgrA. Cys9 in SarA might be oxidized by ROS or other reactive species which could lead to its dissociation from DNA and activation of the sarA regulon. To test this hypothesis, they cloned, expressed, and purified SarA.

MgrA [4] = target: T1, MgrA; details: 4 equiv oxidant, 10 min, r.t.
MgrH1 = target: T3, MgrH1 (Staphylococcus aureus, UniProt Q2FVN3); details: 4 equiv oxidant, 10 min, r.t.
T3 sequence (Q2FVN3 1-148): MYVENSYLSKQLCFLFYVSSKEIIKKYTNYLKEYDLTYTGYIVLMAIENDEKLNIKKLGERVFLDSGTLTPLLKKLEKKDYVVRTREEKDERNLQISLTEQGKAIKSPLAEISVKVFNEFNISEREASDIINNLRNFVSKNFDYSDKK

MgrA [5] = target: T1, MgrA; assay: Binding assays of MgrA with antibiotics; parameters: His6 (N, cleaved yes); made in house; host or cells: E. coli BL21(DE3); species or system S. aureus
Source text: The regulation mechanism of MgrA. […] The inventors were very intrigued by what they had learned about MgrA: • i) MgrA is a DNA binding protein based on its structure and gel shift experiments. • ii) MgrA regulates S. aureus responses to fluoroquinolones (CIP and NOR, FIG. 1), vancomycin, and oxacillin (data not shown). […] Therefore, MgrA must sense some other host or environmental signals. The mechanistic issue for MgrA frustrated the inventors after they obtained the first crystal structure of this protein. Numerous binding assays were peformed to test a variety of hypotheses. A breakthrough came from a careful inspection of the MgrA structure and its sequence, when it was noticed that there is only one Cys residue present in the entire MgrA sequence, at position 12. This Cys residue, located in the N-terminal α1, is precisely in the dimerization domain (FIG. 4A) and seems to play an important role in orienting the MgrA dimer conformation. Each monomer presents its Cys12 to be recognized through hydrogen bonding to Ser113 and Tyr38 from the other monomer (FIG. 4B).

## O=C(O)c1cn(C2CC2)c2cc(N3CCNCC3)c(F)cc2c1=O [CIP, ciprofloxacin]
[1]
  MIC: 0.7 µg/mL (≈ 2.11 µM)
[2]
  MIC: 0.35 µg/mL (≈ 1.06 µM)

## CCOC(=O)CI [Compound 2]
MgrA [3]
  Alkylation percentage (Cys12 of MgrA): >95%

## O=C(CI)c1ccccc1 [Compound 3]
MgrA [3]
  Alkylation percentage (Cys12 of MgrA): >95%

## O=C1C=CC(=O)N1 [Compound 4]
MgrA [3]
  Alkylation percentage (Cys12 of MgrA): >95%

## c1ccc(OCC2CO2)cc1 (centres unmarked) [Compound 5]
MgrA [3]
  Alkylation percentage (Cys12 of MgrA): 48%

## c1ccc(CC2CO2)cc1 (centres unmarked) [Compound 6]
MgrA [3]
  Alkylation percentage (Cys12 of MgrA): 59%

## C=CS(=O)(=O)c1ccccc1 [Compound 7, phenyl vinyl sulfone]
S. aureus Newman strain; 25 μM PVS, Newman strain
  Change of resistance to vancomycin: enhanced resistance to vancomycin
norA gene
  Activation of norA gene: activated norA as efficient as H2O2

## OO [Compound H2O2, hydrogen peroxide]
S. aureus Newman strain; 100 μM H2O2, Newman strain, plate sensitivity assay
  Change of resistance toward CIP and VCM: increased resistance
splB gene
  Activation of splB gene: activated
SarA
  Oxidation of SarA (Cys9): 15% oxidation at r.t.
MgrA [4]
  Oxidation of MgrA (Cys12): 4 equiv, 10 min, 65%
MgrH1
  Oxidation of MgrH1 (Cys13): 4 equiv, 10 min, 71%

## CCn1cc(C(=O)O)c(=O)c2cc(F)c(N3CCNCC3)cc21 [NOR, norfloxacin]
[1]
  MIC: 1.4 µg/mL (≈ 4.38 µM)
[2]
  MIC: 0.7 µg/mL (≈ 2.19 µM)

## C[n+]1ccc(-c2cc[n+](C)cc2)cc1 [PQ, paraquat]
S. aureus Newman strain; 25 μM paraquat, Newman strain, 96-well-plate sensitivity assay
  Change of resistance toward CIP and VCM: increased antibiotic resistance

## CN[C@H](CC(C)C)C(=O)N[C@H]1C(=O)N[C@@H](CC(N)=O)C(=O)N[C@H]2C(=O)N[C@H]3C(=O)N[C@H](C(=O)N[C@H](C(=O)O)c4cc(O)cc(O)c4-c4cc3ccc4O)[C@H](O)c3ccc(c(Cl)c3)Oc3cc2cc(c3O[C@@H]2O[C@H](CO)[C@@H](O)[C@H](O)[C@H]2O[C@H]2C[C@](C)(N)[C@H](O)[C@H](C)O2)Oc2ccc(cc2Cl)[C@H]1O [VCM, vancomycin]
MgrA [5]
  Binding to MgrA: does not bind
[1]
  MIC: 2.4 µg/mL (≈ 1.66 µM)
[2]
  MIC: 1.2 µg/mL (≈ 0.828 µM)
